The values that follow come from patent US5648360A, “Pentacyclic antihistamines” (Schering Corporation, priority 1994, dated 1997).

One test deals with T1, H1 (Cavia porcellus, UniProt P31389).
T1 construct: Ileal segments were removed from male Hartley guinea pigs; from tissue; host or cells: isolated ileal segments of male Hartley guinea pigs
T1 sequence (P31389 whole entry): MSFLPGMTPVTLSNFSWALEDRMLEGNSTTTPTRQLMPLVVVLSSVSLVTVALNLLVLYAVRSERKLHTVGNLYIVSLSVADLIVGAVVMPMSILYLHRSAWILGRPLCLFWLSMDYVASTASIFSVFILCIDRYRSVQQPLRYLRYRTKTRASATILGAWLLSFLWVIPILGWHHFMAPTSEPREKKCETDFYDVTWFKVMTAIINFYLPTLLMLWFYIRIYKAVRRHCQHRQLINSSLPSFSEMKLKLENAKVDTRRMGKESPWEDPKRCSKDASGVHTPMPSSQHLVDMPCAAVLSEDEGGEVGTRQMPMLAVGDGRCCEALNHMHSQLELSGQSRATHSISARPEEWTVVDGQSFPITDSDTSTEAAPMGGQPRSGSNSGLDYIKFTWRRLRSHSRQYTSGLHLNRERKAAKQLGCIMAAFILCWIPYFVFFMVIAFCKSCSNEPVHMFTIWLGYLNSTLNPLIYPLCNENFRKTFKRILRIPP
Nature of the test: In vitro H1 antihistamine activity assay (inhibition of histamine spasmogenic activity in isolated ileal segments). Also on record: species or system male Hartley guinea pigs. The conditions noted are these: guinea pig ileum, antagonist 5 min before histamine curve; read-out: dissociation constant (Ki). The method, then:
In vitro assay: Ileal segments were removed from male Hartley guinea pigs (250-350 g) and suspended in 10 ml perfusion baths containing Tyrode's solution. The buffer was equilibrated with 95% O2 and 5% CO2 and maintained at a temperature of 37° C. The tissues were adjusted to 0.5-1 g tension and allowed to equilibrate for 30 min. All responses were recorded isometrically by means of a Grasse smooth muscle transducer and electronic recorder. Drugs were tested for their ability to inhibit the spasmogenic activity of histamine dihydrochloride. Two cumulative control log concentration-response curves for histamine (10^-7 -10^-5 M) were generated for each tissue. Antagonists were added to the bath and allowed to act for 5 min. before another histamine curve was generated.
Drugs were evaluated for their ability to inhibit histamine and thereby shift the response curve to the right. […] These values were used to determine relative potency.
What is called Ki is the dissociation constant of the complex between target and ligand, obtained from inhibition or displacement. In the case of `CN1CC[C@H]2[C@@H](Cc3cc(Cl)cc4c3[C@@H]2c2ncccc2CC4)C1` (relative stereo) [Compound 17, 7-chloro-2,3,4,4a,5,9,10,14b,14c-decahydro-3-methylpyrido[2",3":7',6']-cyclohepta[1',2',3',:4,5]naphtho[2,3-c]pyridine], the Ki came out at 0.001 µM.

The same test, now with this note: guinea pig ileum, antagonist 5 min before histamine curve; read-out: pA2 (converted).
On to `CN1CC[C@H]2[C@@H](Cc3cc(Cl)cc4c3[C@@H]2c2ncccc2CC4)C1` (relative stereo) [Compound 17, 7-chloro-2,3,4,4a,5,9,10,14b,14c-decahydro-3-methylpyrido[2",3":7',6']-cyclohepta[1',2',3',:4,5]naphtho[2,3-c]pyridine], for which the Kb was 0.00141 µM.

The test system of the next test is PAF-induced platelet aggregation. In words: In vitro PAF antagonism assay (inhibition of PAF-induced platelet aggregation in platelet-rich plasma). The test is classed as cell-based. The conditions noted are these: at 50 μM, human PRP, PAF 1-5×10^-8 M. The method, then:
In vitro Assay: Preparation of platelet-rich plasma (PRP): Human blood (50 ml) is collected from healthy male donors in an anticoagulant solution (5 ml) containing sodium citrate (3.8%) and dextrose (2%). Blood is centrifuged at 110 x g for 15 min. and the supematant (PRP) carefully transferred into a polypropylene tube. Platelet-poor-plasma (PPP) is prepared by centrifuging PRP at 12,000 x g for 2 min. (Beckman Microfuge B). PRP is used within 3 hours of drawing the blood.
Platelet Aggregation Assay: When an aggregating agent such as PAF is added to PRP, platelets aggregate. The aggregation assays are performed using a dual-channel aggregometer (Model 440, Chrono-Log Corp., Havertown, Pa.). PRP (0.45 ml) in aggregometer cuvettes is continually stirred (37° C.). Solutions of test compounds or vehicle are added to the PRP, and after incubation for 2 min., 10-15 μl aliquots of PAF solution are added so as to achieve a final concentration of 1-5×10^-8 M. Incubations are continued until the increase in light transmission reaches a maximum (usually 2 min). Values for inhibition are calculated by comparing maximal aggregation obtained in the absence and the presence of the compound. For each experiment, a standard PAF antagonist such as alprazolam is used as a positive internal control. The inhibitory concentration (IC50) is the concentration of compound in micromoles at which 50% of the aggregation is inhibited, as measured by the light transmission through each sample of PRP as compared to PPP.
In general, inhibition refers to the share of the control response that was lost under treatment. Read a low inhibition as little suppression. The compound `CC(=O)N1CC[C@H]2C(=O)c3cc(Cl)cc4c3[C@H](c3ncccc3CC4)[C@H]2C1` (relative stereo) [Compound 6A] displayed an inhibition at 50 µM of 33%. On the same count and under the same terms, as for `CC(=O)N1CC[C@@H]2C(=O)c3cc(Cl)cc4c3[C@H](c3ncccc3CC4)[C@H]2C1` (relative stereo) [Compound 6B], the figure is 49%. The compound `CC(=O)N1CC[C@@H]2[C@H]3c4ncccc4CCc4cc(Cl)cc(c43)C(=O)[C@@H]2C1` (relative stereo) [Compound 10A] had an inhibition at 50 µM of 15%. Same read-out and setting: as for `CN1CC[C@@H]2[C@H]3c4ncccc4CCc4cc(Cl)cc(c43)C(=O)[C@@H]2C1` (relative stereo) [Compound 11A], the figure is 47%; as for `CN1CC[C@@H]2[C@H]3c4ncccc4CCc4cc(Cl)cc(c43)C(=O)[C@H]2C1` (relative stereo) [Compound 11B], 4%; as for `CC(=O)N1CC[C@H]2C(=Cc3cc(Cl)cc4c3[C@@H]2c2ncccc2CC4)C1` (relative stereo) [Compound 13], 23%.

The same test, now with this note: human PRP, PAF 1-5×10^-8 M.
Broadly, the IC50 is the concentration that gives 50% inhibition. With `CC(=O)N1CC[C@H]2[C@H](Cc3cc(Cl)cc4c3[C@@H]2c2ncccc2CC4)C1` (relative stereo) [Compound 14A], the IC50 is about 3000 µM. Still for that read-out and setting: as for `CC(=O)N1CC[C@H]2[C@@H](Cc3cc(Cl)cc4c3[C@@H]2c2ncccc2CC4)C1` (relative stereo) [Compound 14B], the figure is about 300 µM; as for `CN1CC[C@H]2C(=Cc3cc(Cl)cc4c3[C@@H]2c2ncccc2CC4)C1` (relative stereo) [Compound 16], about 5.5 µM; as for `CN1CC[C@H]2[C@@H](Cc3cc(Cl)cc4c3[C@@H]2c2ncccc2CC4)C1` (relative stereo) [Compound 17, 7-chloro-2,3,4,4a,5,9,10,14b,14c-decahydro-3-methylpyrido[2",3":7',6']-cyclohepta[1',2',3',:4,5]naphtho[2,3-c]pyridine], about 38 µM. Same read-out and setting: as for `O=C(c1cc[n+]([O-])cc1)N1CC[C@H]2[C@@H](Cc3cc(Cl)cc4c3[C@@H]2c2ncccc2CC4)C1` (relative stereo) [Compound 20], the figure is about 2.8 µM.
